Measurements as given in patent US20230381159A1 (priority 2020, published 2023).
Read-outs that look alike come from different tables or passages of the source.

Tests used:
[1] = target: SARS-CoV-S1S2-hACE2 PPI (Severe acute respiratory syndrome coronavirus, UniProt P59594); test: biochemical; format: binding, SARS-CoV / human
[2] = test system: SARS-CoV-2 pseudovirus (BacMam) entry into ACE2 expressing host cells (HEK293T); test: microbe, parasite or virus in culture; format: cell-based, SARS-CoV-2 pseudovirus / human cells; conditions: Severe acute respiratory syndrome-related coronavirus, HEK-293T, read-out: IC50, inhibition of pseudovirus entry (BacMam)
[3] = target: SARS-CoV-2-RBD-hACE2 PPI (Severe acute respiratory syndrome coronavirus 2, UniProt P0DTC2); test: biochemical; format: binding, SARS-CoV-2 / human
[4] = read-out: IC50, SARS-CoV S-hACE2 assay
[5] = read-out: IC50, SARS-CoV-2 S-ACE2 assay

Compound: Cc1cc(-c2ccc(/N=N/c3ccc4c(S(=O)(=O)O)cc(S(=O)(=O)O)c(N)c4c3O)c(C)c2)ccc1/N=N/c1ccc2c(S(=O)(=O)O)cc(S(=O)(=O)O)c(N)c2c1O [Evans blue]
- IC50 [1, 4]: 1.3 µM

Compound: O=C(Nc1ccc(-c2ccc(C(=O)Nc3cccc4cc(S(=O)(=O)O)ccc34)cc2)cc1)c1ccc([N+](=O)[O-])cc1 [Compound A2, 5-(4′-(4-Nitrobenzamido)biphenyl-4-ylcarboxamido)naphthalene-2-sulfonic acid]
- IC50 [1]: 3.4 µM
- IC50 [2]: 5.6 µM

Compound: Nc1c(/N=N/c2ccc(-c3ccc(/N=N/c4cc(S(=O)(=O)O)c5ccccc5c4N)cc3)cc2)cc(S(=O)(=O)O)c2ccccc12 [Congo red]
- IC50 [1, 4]: 3.9 µM
- IC50 [2]: 20 µM

Compound: O=C(Nc1ccc2cc(S(=O)(=O)O)cc(O)c2c1)c1ccc(-c2ccc(C(=O)Nc3ccc4cc(S(=O)(=O)O)cc(O)c4c3)cc2)cc1 [Compound A5]
- IC50 [1]: 0.24 µM
- IC50 ([3]; IC50, SARS-CoV-2 S-ACE2 assay): 0.16 µM

Compound: Nc1ccc(N=Nc2ccc(-c3ccc(N=Nc4c(S(=O)(=O)O)cc5cc(S(=O)(=O)O)c(N=Nc6ccccc6)c(O)c5c4N)cc3)cc2)c(N)c1 [chlorazol black]
- IC50 [3, 5]: 2.57 µM

Compound: CCOc1ccc(N=Nc2ccc(-c3ccc(N=Nc4c(O)ccc5cc(S(=O)(=O)O)cc(S(=O)(=O)O)c45)c(C)c3)cc2C)cc1 [calcomine scarlet 3B]
- IC50 [1, 4]: 9.9 µM
- IC50 [3, 5]: 4.25 µM

Compound: Nc1ccc2cc(S(=O)(=O)O)cc(O)c2c1N=Nc1ccc(-c2ccc(N=Nc3c(N)ccc4cc(S(=O)(=O)O)cc(O)c34)cc2)cc1 [direct violet 1]
- IC50 [1, 4]: 2.6 µM
